In patent publication US12234271B2 (Synthorx, Inc., priority 2019, dated 2025):

Experiments:
[1] = cited from earlier work
CTLL-2 = CTLL-2 proliferation; assay type: cell-based; conditions: mouse CTLL-2
Source text: FIG. 4A-FIG. 4B show the dose response curves for pSTAT5 signaling in human LRS primary cell (FIG. 4A) and proliferation response in mouse CTLL-2 populations (FIG. 4B).

Treg cells = assay: pSTAT5 signaling in human LRS-derived PBMC samples, Treg cells (flow cytometry); assay type: cell-based; conditions: for Fold increase in Treg EC50 vs native IL-2: compared to native IL-2 run in each individual experiment; for Treg cells, dose response EC50 for pSTAT5 signaling: human LRS samples, from MFI plots; for CD8+/Treg ratio: ratio of pSTAT5 EC50, human LRS samples
Method: (§1) Conjugates of Table 3 were synthesized by modification of SEQ ID NO. 1.
(§2) These studies were performed at PrimityBio LLC (Fremont, CA).

CD8+ Tcells = assay: pSTAT5 signaling in human LRS-derived PBMC samples, CD8+ T cells (flow cytometry); assay type: cell-based; conditions: from MFI plots
Method: as §1, §2

NK cells = assay: pSTAT5 signaling in human LRS-derived PBMC samples, NK cells (flow cytometry); assay type: cell-based; conditions: from MFI plots
Method: as §1, §2

[2] = test system: white blood cell count (WBC), lymphocyte count; assay: Hematology after single subcutaneous dose in Cynomolgus monkeys; assay type: in vivo, Cynomolgus monkey
Source text: Each of the conjugates described below, except H16_30 kDa and H16_50 kDa, had SEQ ID NO: 4 in which the indicated amino acid position is substituted with the structure of Formula (II), Formula (III), or a mixture of Formula (II) and (III), and they contain a PEG chain of the indicated size. For example, the variant labeled “L19_30 kDa” has SEQ ID NO: 4 in which the amino acid at position L19 is replaced by the structure of Formula (II), Formula (III), or a mixture of Formula (II) and (III), and contains a 30 kDa, linear mPEG group. For the H16_30 kDa and H16_50 kDa variants, the compounds had SEQ ID NO: 4 in which the indicated amino acid position is substituted with the structure of Formula (IV), Formula (V), or a mixture of Formula (IV) and […] a linear, mPEG group having a molecular weight of 30 kDa or 50 kDa, respectively.
Blood samples were taken from each animal at the following time points: Samples for hematology: Day −1, Day 1 (Predose), 3, 6, 10, 15 and 22. Samples for pharmacokinetics and pharmacodynamics: (Predose), 0.5, 1, 2, 4, 8, 24, 36, 48, 72, 96, 120, 144, 168, and 240, 360, 528 (Day 22) hours post-dose. Cytokine sample collection and analysis: Day −1, and Day 1 (Predose), 8, 24, 72, 120 and 168, 360, and 528 (Day 22) hours post-dose.

[3] = biological target: T1, IL-2 receptor alpha beta gamma (Homo sapiens, UniProt P01589+P14784+P31785); assay: PathHunter IL-2 Cytokine Receptor agonist assay, alpha beta gamma; assay type: cell-based; conditions: U2OS PathHunter cells with IL-2Ralpha; mass of IL-2 polypeptide only, without mPEG or linker
T1 construct: host or cells: U2OS (PathHunter)
T1 sequence (P01589 22-272): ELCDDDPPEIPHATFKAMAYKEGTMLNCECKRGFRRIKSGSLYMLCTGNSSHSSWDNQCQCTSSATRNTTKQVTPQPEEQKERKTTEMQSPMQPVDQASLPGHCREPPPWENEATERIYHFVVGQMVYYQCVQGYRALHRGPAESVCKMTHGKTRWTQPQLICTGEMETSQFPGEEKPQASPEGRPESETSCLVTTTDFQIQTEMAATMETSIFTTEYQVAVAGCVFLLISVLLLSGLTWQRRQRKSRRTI
T1 sequence (P14784 27-551): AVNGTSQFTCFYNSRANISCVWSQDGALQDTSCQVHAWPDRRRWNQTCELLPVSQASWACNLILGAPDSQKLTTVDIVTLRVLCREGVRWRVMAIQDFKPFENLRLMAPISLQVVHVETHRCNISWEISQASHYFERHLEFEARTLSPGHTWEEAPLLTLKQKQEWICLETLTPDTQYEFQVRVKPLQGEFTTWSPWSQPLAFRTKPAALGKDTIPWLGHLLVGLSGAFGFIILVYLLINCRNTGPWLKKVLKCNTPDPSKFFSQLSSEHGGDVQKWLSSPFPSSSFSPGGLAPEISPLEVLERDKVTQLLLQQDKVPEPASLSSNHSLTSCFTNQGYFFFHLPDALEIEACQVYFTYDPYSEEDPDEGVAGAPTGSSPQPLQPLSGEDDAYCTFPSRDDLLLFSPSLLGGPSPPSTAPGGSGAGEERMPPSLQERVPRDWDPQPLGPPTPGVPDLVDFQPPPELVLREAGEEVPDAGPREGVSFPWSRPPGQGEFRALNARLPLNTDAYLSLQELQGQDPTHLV
T1 sequence (P31785 23-369): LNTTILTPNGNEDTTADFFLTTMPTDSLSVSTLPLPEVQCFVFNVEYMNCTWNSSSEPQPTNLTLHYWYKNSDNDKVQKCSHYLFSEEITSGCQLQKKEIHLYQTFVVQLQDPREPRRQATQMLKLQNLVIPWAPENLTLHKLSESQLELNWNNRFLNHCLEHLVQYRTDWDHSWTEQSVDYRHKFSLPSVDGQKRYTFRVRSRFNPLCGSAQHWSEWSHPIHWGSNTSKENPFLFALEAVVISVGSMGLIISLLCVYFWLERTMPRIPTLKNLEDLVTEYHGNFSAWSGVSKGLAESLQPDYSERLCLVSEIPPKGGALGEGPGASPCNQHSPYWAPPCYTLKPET
Method: (§3) For example, the compounds labelled “D20_30” in this example is the compound having SEQ ID NO: 4 in which the structure of Formula (II), Formula (III), or a mixture of Formula (II) and (III) was substituted at the D20 residue (SEQ ID NO: 67) with a PEG group having a molecular weight of 30 kDa. Similarly, the following compounds were tested in this Example:
(§4) A second cell line was engineered to express the IL-2Ralpha subunit.
(§5) PathHunter cell lines were expanded from freezer stocks according to standard procedures. Cells were seeded in a total volume of 20 μL into white walled, 384-well microplates and incubated for the appropriate time prior to testing. […] Intermediate dilution of sample stocks was performed to generate 5× sample in assay buffer. About 5 μL of 5× sample was added to cells and incubated at 37° C. for a period of from 6 hours to 16 hours depending on the assay. Vehicle concentration was 1%. […] For some assays, activity was detected using a high sensitivity detection reagent (PathHunter Flash Kit) to improve assay performance. […] Microplates were read following signal generation with a PerkinElmer Envision instrument for chemiluminescent signal detection.
(§6) Compound activity was analyzed using CBIS data analysis suite software (ChemInnovation, CA).

IL-2 receptor beta gamma = biological target: T2, IL-2 receptor beta gamma (Homo sapiens, UniProt P14784+P31785); assay: PathHunter IL-2 Cytokine Receptor agonist assay, beta gamma; assay type: cell-based; conditions: U2OS PathHunter cells IL-2Rbeta/gamma; mass of IL-2 polypeptide only, without mPEG or linker
T2 construct: host or cells: U2OS (PathHunter)
T2 sequence (P14784 27-551): T1 sequence (P14784 27-551)
T2 sequence (P31785 23-369): T1 sequence (P31785 23-369)
Method: as §3, §4, §5, §6

Fold increase in Treg EC50 vs native IL-2 (Treg cells)	Treg cells, dose response EC50 for pSTAT5 signaling (Treg cells) [pg/ml]	CD8+ Tcells, dose response EC50 for pSTAT5 signaling (CD8+ Tcells) [pg/ml]	NK cells, dose response EC50 for pSTAT5 signaling (NK cells) [pg/ml]	Substance	CTLL-2 proliferation EC50 (CTLL-2) [ng/mL]	CD8+/Treg ratio (Treg cells)	other results
–	–	–	–	human transferrin: 679 amino acid polypeptide that is about 80 kDa in size	–	–	half-life [1]: 170 to 288 h
148	11082	15025734	2312847	N88R: IL-2 variant of Table 3 labelled N88R, no PEG size given [reference compound]	0.363	1356	–
3	142	102255	20537	V91K: IL-2 variant of Table 3 labelled V91K, no PEG size given [reference compound]	0.0995	720	–
–	–	–	–	N88_30kDa: SEQ ID NO: 4 with Formula (II), (III) or mixture at N88 (SEQ ID NO: 70), linear mPEG 30 kDa	–	–	Date at the peak of lymphocytes ([2]; 0.37 mg/kg single subcutaneous dose): 6 days post
–	–	–	–	H16_30kDa: SEQ ID NO: 4 with Formula (II), (III) or mixture at H16 (SEQ ID NO: 65), linear mPEG 30 kDa	–	–	Alpha beta gamma EC50 [3]: 3.3 ng/mL; Beta gamma EC50 (IL-2 receptor beta gamma): 5742 ng/mL
–	–	–	–	L19_30kDa: SEQ ID NO: 4 with Formula (II), (III) or mixture at L19 (SEQ ID NO: 66), 30 kDa linear mPEG	–	–	Date at the peak of lymphocytes ([2]; 0.03 mg/kg single subcutaneous dose): 6 days post; Date at the peak of lymphocytes ([2]; 0.16 mg/kg single subcutaneous dose): 6 days post
